We go through 8 compounds from US8263607B2, “1-substituted tetrahydroisoquinoline compound” (Astellas Pharma Inc., priority 2007, dated 2012).

Molecules are shown by their SMILES.

The subject of test [1] is mechanical allodynia in L5/L6 spinal nerve-ligated rats. Particulars: known; cited from earlier work.
Test [2] deals with formalin-induced pain behaviors. Nature of the test: Nociceptive pain model (mouse formalin test). It counts as in vivo, mice (ddY, male). The note with it: 100 mg/kg oral, 30 min before formalin; pain behaviors 15 to 25 min after formalin, vs vehicle. The protocol:
A mouse formalin test was carried out by a modification of the method as described in the literature [Murakami et al., Eur. J. Pharmacol. 419: 175-181 (2001)]. When 20 μL of 2.0% formalin was subcutaneously administered to the paw pads of mice (ddY, male, 5 weeks old), pain behaviors (limb withdrawal and licking behaviors) were induced in the treated animal limbs. From 15 to 25 minutes after the administration of formalin, the time taken for the onset of pain behaviors was measured to thereby evaluate the inhibitory action of the test compound on pain behaviors of animals. The test compound was orally given 30 minutes prior to the administration of formalin. […] Inhibition rate(%)=100−(mean onset time of pain behaviors in test compound-treated group)/(mean onset time of pain behaviors in vehicle-treated group)×100

Test [3] has as its system mechanical allodynia in L5/L6 spinal nerve-ligated rats. In words: Neuropathic pain model (antiallodynic effects in L5/L6 spinal nerve-ligated rats, von Frey hair test). Particulars: 30 to 60 min before measurement, response threshold, ipsilateral 0% / contralateral 100% of vehicle group. It is filed as in vivo, rats (SD, male). The procedure:
The antiallodynic effects of the compounds of the present invention were confirmed by assessing the analgesic action in L5/L6 spinal nerve-ligated rats. The assessment was carried out by the method of Kim and Chung (Pain 50, 355-363, 1992) with some modifications.
Under pentobarbital anesthesia, the left L5 and L6 spinal nerves of male SD rats (5-6 weeks old) were tightly ligated with silk thread. For the assessment of analgesic action, the von Frey hair test was adopted. That is, the animal's hind paw pad was pricked with hair and the lowest strength of hair for limb withdrawal response was designated as a response threshold (log gram) to mechanical stimulation. […] On the day before the assessment of the test compound, the response threshold before administration of the test compound was measured. The animals were divided into 4 to 5 groups such that mean value differences of response thresholds between groups before administration of the test compound and within-group variation become small. In the assessment of the test compound, the response threshold after administration of the test compound was measured. The test compound was orally administered 30 to 60 minutes before the measurement of the response threshold. […] Recovery rate(%)={(mean of response threshold in test compound-treated group)−(mean of response threshold of ipsilateral paw in vehicle-treated group)}/{(mean of response threshold of contralateral paw in the vehicle-treated group)−(mean of response threshold of ipsilateral paw in the vehicle-treated group)}×100

In test [4] the test system is loperamide-induced bead transit delay. Nature of the test: Spastic constipation model (loperamide-induced colorectal bead transit delay test in mice). It counts as in vivo, mouse (ddY, male). Particulars: 3 mg/kg oral, concurrently with loperamide 0.3 mg/kg s.c.; bead excretion time. The procedure:
A 3-mm diameter glass bead is deeply inserted at a depth of 2 cm into the anus of the mouse (ddY, male, 6 weeks old), and the time taken for excretion of the bead is measured. […] With improving effects on the loperamide-induced bead transit delay, a bowel movement-improving action of the test compound on spastic constipation was evaluated. The test compound was orally administered concurrently with administration of loperamide (30 minutes before the insertion of the bead). The assessment of the test compound was made from calculation of an improvement rate in the bead excretion time of the test compound-treated/loperamide-treated group, by taking the bead excretion time of the non-test compound treated/non-loperamide treated (vehicle-treated/vehicle-treated) group as 100%, and by taking the bead excretion time of the non-test compound treated/loperamide-treated (vehicle-treated/loperamide-treated) group as 0%.

For test [5], the system named is CRD-induced abdominal flexion reflex behaviors. Nature of the test: Abdominal pain model (CRD-induced abdominal pain in rats). It counts as in vivo, rat (Wistar, male). Particulars: 10 mg/kg oral, 30 min before distension; abdominal flexion reflex behaviors at internal pressure of 45 mmHg. The procedure:
Improving effects of the compounds of the present invention on digestive tract pain were confirmed by assay of CRD-induced abdominal pain in rats. The rat CRD-induced abdominal pain assay was carried out by a modification of the method described in the literature [Neurogastroenterol. Motil. 15: 363-369 (2003)]. When stimulation of constant internal pressure is applied to the colorectum of an animal by inflation of a 6-cm long balloon inserted into the anus of the rat (Wistar, male, 250-350 g), abdominal flexion reflex behaviors are induced due to abdominal pain. A frequency of reflex behaviors occurring during distension stimulation of 5 minutes was counted to estimate an abdominal pain-inhibitory action of the test compound. The test compound was orally administered 30 minutes before the initiation of distension stimulation. Estimation of the test compound was made by calculating an inhibition rate (%) of abdominal flexion reflex behaviors on the vehicle-treated group.

With `CN1CC[C@]23c4c5ccc(O)c4O[C@H]2[C@@H](O)C=C[C@H]3[C@H]1C5` [morphine], in test [1], the “recovery of mechanical allodynia with treatment of morphine” value is reported as “only a partial recovery”.

Consider `COc1cccc2c1[C@H](c1ccccc1)N(C(=O)CNC[C@@H](C)O)CC2` [Example 575], for which the Inhibition rate in test [2] is recorded as 77%. Moreover, in test [3] (10 mg/kg oral), the “Recovery rate (%) (dose)” value came out at 83%.

On to `COC[C@@H](O)CNCC(=O)N1CCc2ccccc2[C@@H]1C1CCCCC1` [Example 157], for which the Inhibition rate is given as 40% in test [4], 52% in test [2] and 59% in test [5]. In addition, the “Recovery rate (%) (dose)” value in test [3] (30 mg/kg oral) is 97%.

In test [2], `O=C(CNCC1(O)CCCCC1)N1CCc2ccccc2[C@@H]1C1CCCCC1` [Example 1, 1-[({2-[(1S)-1-cyclohexyl-3,4-dihydroisoquinolin-2(1H)-yl]-2-oxoethyl}amino)methyl]cyclohexanol] had an Inhibition rate of 52%. In addition, the “Recovery rate (%) (dose)” value in test [3] (30 mg/kg oral) is 95%.

`COc1ccc2c(c1)CCN(C(=O)CNCC1(O)CCCCC1)[C@H]2C(C)C` [Example 415]: the results for the Inhibition rate in test [4] and in test [5] were 88% and 60%, respectively.

`COC[C@@H](O)CNCC(=O)N1CCc2ccccc2[C@@H]1Cc1ccccc1C(F)(F)F` [Example 433]: the Inhibition rate is 73% in test [4], 60% in test [2] and 43% in test [5]. Also, the “Recovery rate (%) (dose)” value in test [3] (10 mg/kg oral) was determined as 80%.

Turning to `CCc1ccc2c(c1)[C@H](COC)N(C(=O)CNCC1(O)CCCCC1)CC2` [Example 436], the Inhibition rate in test [4] was found to be 59%; in test [2], 55%; in test [5], 56%. The “Recovery rate (%) (dose)” value in test [3] (10 mg/kg oral) was determined as 156%.

Regarding `COc1cccc2c1[C@H](c1ccccc1)N(C(=O)CNC[C@@H](C)O)CC2` [Example 435], the Inhibition rate was determined as 67% in test [4] and 46% in test [5].
